Where a name gives a salt, the structure may show the parent alone.
Each compound was assayed on 293T-HRE-GFP-luc cells (assay: Cell-based reporter assay for IC50 determinations). Details: hypoxia 6 hrs (1% O2), luminescence, read-out: IC50 Classification.
Description: Cell-Based Reporter Assay for IC50 Determinations
293T-HRE-GFP-luc cells were routinely maintained in DMEM media (high glucose version with GlutaMAX and HEPES, Gibco, catalog #10564) supplemented with 10% fetal bovine serum and 2 μg/mL puromycin (Invitrogen, catalog #A11138-03) using a humidified incubator (normoxia conditions consisting of 37° C., 5% CO2 and ambient O2).
In preparation for the reporter assay, cells were harvested and resuspended in DMEM media (high glucose version with GlutaMAX and HEPES) supplemented with 10% fetal bovine serum. Cells were inoculated into 384-well white Culturplates (Perkin Elmer catalog #6007680) at a density of 12,000 cells/well in a volume of 30 μL. The microplates were incubated overnight (approximately 17-19 hours) at 37° C. with 5% CO2 and ambient O2. Stock solutions of the test compounds were prepared in DMSO (Sigma, Catalog #D2650) and serially diluted 1:3 using DMSO. Compounds were additionally diluted (1:50) with culturemedium and 10 μL were added per well to the Culturplate. Following a 30 min. incubation under normoxia conditions, the plates were incubated in hypoxia for 6 hrs. (37° C., 5% CO2 and 1% O2). Steadylite Plus (Perkin Elmer, catalog #6016751) was then added (40 μL/well), the plates were mixed on an orbital shaker at room temperature in the dark for 15 min., and luminescence was measured using an Envision plate reader (Perkin Elmer). IC50 values were calculated using a four-parameter logistic curve fit. Results are shown below in Table 2; ND indicates no data.

Structure (SMILES) | IC50
Cc1nc(-c2nc(-c3ccc(OC(F)(F)F)cc3)no2)nn1Cc1cccc(N2CCN(C)CC2)c1 [Example 25, 1-methyl-4-(3-((5-methyl-3-(3-(4-(trifluoromethoxy)phenyl)-1,2,4-oxadiazol-5-yl)-1H-1,2,4-triazol-1-yl)methyl)phenyl)piperazin-1-ium trifluoroacetate] | < 100 nM
Cc1nc(-c2nc(-c3ccc(OC(F)(F)F)cc3)no2)nn1Cc1ccnc(N2CCC(O)CC2)c1 [Example 26, 1-(4-((5-Methyl-3-(3-(4-(trifluoromethoxy)phenyl)-1,2,4-oxadiazol-5-yl)-1H-1,2,4-triazol-1-yl)methyl)pyridin-2-yl)piperidin-4-ol] | < 100 nM
Cc1nc(-c2nc(-c3ccc(OC(F)(F)F)cc3)no2)nn1Cc1ccnc(N2CCC(C#N)CC2)c1 [Example 27, 1-(4-((5-Methyl-3-(3-(4-(trifluoromethoxy)phenyl)-1,2,4-oxadiazol-5-yl)-1H-1,2,4-triazol-1-yl)methyl)pyridin-2-yl)piperidine-4-carbonitrile] | < 100 nM
Cc1nc(-c2nc(-c3ccc(OC(F)(F)F)cc3)no2)nn1Cc1ccnc(N2CCCC2)c1 [Example 28, 5-(5-Methyl-1-((2-(pyrrolidin-1-yl)pyridin-4-yl)methyl)-1H-1,2,4-triazol-3-yl)-3-(4-(trifluoromethoxy)phenyl)-1,2,4-oxadiazole] | < 100 nM
Cc1nc(-c2nc(-c3ccccc3)no2)nn1Cc1ccnc(N2CCN(C)CC2)c1 [Example 29, 1-Methyl-4-(4-((5-methyl-3-(3-phenyl-1,2,4-oxadiazol-5-yl)-1H-1,2,4-triazol-1-yl)methyl)pyridin-1-ium-2-yl)piperazin-1-ium bis-trifluoroacetate] | 1000 to 10000 nM
Cc1nc(-c2nc(-c3ccc(OC(F)(F)F)cc3)no2)nn1Cc1cccc(C(=O)NCCN(C)C)c1 [Example 30, N-(2-(Dimethylamino)ethyl)-3-((5-methyl-3-(3-(4-(trifluoromethoxy)phenyl)-1,2,4-oxadiazol-5-yl)-1H-1,2,4-triazol-1-yl)methyl)benzamide] | < 100 nM
Cc1nc(-c2nc(-c3ccc(OC(F)(F)F)cc3)no2)nn1Cc1ccnc(N2CCC(C)(C)CC2)c1 [Example 31, 5-(1-((2-(4,4-Dimethylpiperidin-1-yl)pyridin-4-yl)methyl)-5-methyl-1H-1,2,4-triazol-3-yl)-3-(4-(trifluoromethoxy)phenyl)-1,2,4-oxadiazole] | < 100 nM
COCCCNc1cc(Cn2nc(-c3nc(-c4ccc(OC(F)(F)F)cc4)no3)nc2C)ccn1 [Example 32, N-(3-Methoxypropyl)-4-((5-methyl-3-(3-(4-(trifluoromethoxy)phenyl)-1,2,4-oxadiazol-5-yl)-1H-1,2,4-triazol-1-yl)methyl)pyridin-2-amine] | < 100 nM
CCc1nc(-c2nc(-c3ccc(OC(F)(F)F)cc3)no2)nn1Cc1ccccc1 [Example 33, 5-(1-Benzyl-5-ethyl-1H-1,2,4-triazol-3-yl)-3-(4-(trifluoromethoxy)phenyl)-1,2,4-oxadiazole] | 1000 to 10000 nM
FC(F)(F)Oc1ccc(-c2noc(-c3nc(C4CC4)n(Cc4ccccc4)n3)n2)cc1 [Example 34, 5-(1-Benzyl-5-cyclopropyl-1H-1,2,4-triazol-3-yl)-3-(4-(trifluoromethoxy)phenyl)-1,2,4-oxadiazole] | 1000 to 10000 nM
Cc1nc(-c2nc(-c3ccc(OC(F)(F)F)cc3)no2)nn1Cc1ccnc(NCCN2CCOCC2)c1 [Example 35, 4-((5-Methyl-3-(3-(4-(trifluoromethoxy)phenyl)-1,2,4-oxadiazol-5-yl)-1H-1,2,4-triazol-1-yl)methyl)-N-(2-morpholinoethyl)pyridin-2-amine] | < 100 nM
CNc1cc(Cn2nc(-c3nc(-c4ccc(OC(F)(F)F)cc4)no3)nc2C)ccn1 [Example 36, N-Methyl-4-((5-methyl-3-(3-(4-(trifluoromethoxy)phenyl)-1,2,4-oxadiazol-5-yl)-1H-1,2,4-triazol-1-yl)methyl)pyridin-2-amine] | < 100 nM
Cc1nc(-c2nc(-c3ccc(OC(F)(F)F)cc3)no2)nn1Cc1ccnc(N(C)C)c1 [Example 37, N,N-Dimethyl-4-((5-methyl-3-(3-(4-(trifluoromethoxy)phenyl)-1,2,4-oxadiazol-5-yl)-1H-1,2,4-triazol-1-yl)methyl)pyridin-2-amine] | < 100 nM
CC(=O)N1CCN(c2cc(Cn3nc(-c4nc(-c5ccc(OC(F)(F)F)cc5)no4)nc3C)ccn2)CC1 [Example 38, 1-(4-(4-((5-Methyl-3-(3-(4-(trifluoromethoxy)phenyl)-1,2,4-oxadiazol-5-yl)-1H-1,2,4-triazol-1-yl)methyl)pyridin-2-yl)piperazin-1-yl)ethanone] | < 100 nM
Cc1nc(-c2nc(-c3ccc(OC(F)(F)F)cc3)no2)nn1Cc1cccc(C(=O)NCCO)c1 [Example 39, N-(2-Hydroxyethyl)-3-((5-methyl-3-(3-(4-(trifluoromethoxy)phenyl)-1,2,4-oxadiazol-5-yl)-1H-1,2,4-triazol-1-yl)methyl)benzamide] | 100 to 1000 nM
Cc1nc(-c2nc(-c3ccc(OC(F)(F)F)cc3)no2)nn1Cc1cccc(C(=O)N(C)C)c1 [Example 40, N,N-Dimethyl-3-((5-methyl-3-(3-(4-(trifluoromethoxy)phenyl)-1,2,4-oxadiazol-5-yl)-1H-1,2,4-triazol-1-yl)methyl)benzamide] | < 100 nM
COCCCNC(=O)c1ccc(Cn2nc(-c3nc(-c4ccc(OC(F)(F)F)cc4)no3)nc2C)cc1 [Example 41, N-(3-Methoxypropyl)-4-((5-methyl-3-(3-(4-(trifluoromethoxy)phenyl)-1,2,4-oxadiazol-5-yl)-1H-1,2,4-triazol-1-yl)methyl)benzamide] | 100 to 1000 nM
Cc1nc(-c2nc(-c3ccc(OC(F)(F)F)cc3)no2)nn1Cc1ccc(C(=O)N2CCN(C)CC2)cc1 [Example 42, (4-((5-Methyl-3-(3-(4-(trifluoromethoxy)phenyl)-1,2,4-oxadiazol-5-yl)-1H-1,2,4-triazol-1-yl)methyl)phenyl)(4-methylpiperazin-1-yl)methanone] | 100 to 1000 nM
Cc1nc(-c2nc(-c3ccc(OC(F)(F)F)cc3)no2)nn1Cc1ccnc(N2CCS(=O)(=O)CC2)c1 [Example 43, 2-(1,1-Dioxidothiomorpholino)-4-((5-methyl-3-(3-(4-(trifluoromethoxy)phenyl)-1,2,4-oxadiazol-5-yl)-1H-1,2,4-triazol-1-yl)methyl)pyridin-1-ium trifluoroacetate] | 100 to 1000 nM
Cc1nc(-c2nc(-c3ccc(OC(F)(F)F)cc3)no2)nn1Cc1cccc(N2CCOCC2)c1 [Example 44, 4-(3-((5-Methyl-3-(3-(4-(trifluoromethoxy)phenyl)-1,2,4-oxadiazol-5-yl)-1H-1,2,4-triazol-1-yl)methyl)phenyl)morpholine] | < 100 nM
Cc1nc(-c2nc(-c3ccc(OC(F)(F)F)cc3)no2)nn1Cc1ccnc(NCCN(C)C)c1 [Example 45, N1,N1-Dimethyl-N2-(4-((5-methyl-3-(3-(4-(trifluoromethoxy)phenyl)-1,2,4-oxadiazol-5-yl)-1H-1,2,4-triazol-1-yl)methyl)pyridin-2-yl)ethane-1,2-diamine] | 1000 to 10000 nM
Cc1nc(-c2nc(-c3ccc(OC(F)(F)F)cc3)no2)nn1Cc1ccnc(NCCN2CCCC2)c1 [Example 46, 4-((5-Methyl-3-(3-(4-(trifluoromethoxy)phenyl)-1,2,4-oxadiazol-5-yl)-1H-1,2,4-triazol-1-yl)methyl)-N-(2-(pyrrolidin-1-yl)ethyl)pyridin-2-amine] | 1000 to 10000 nM
Cc1nc(-c2nc(-c3ccc(OC(F)(F)F)cc3)no2)nn1Cc1ccc(Cl)s1 [Example 47, 5-(1-((5-Chlorothiophen-2-yl)methyl)-5-methyl-1H-1,2,4-triazol-3-yl)-3-(4-(trifluoromethoxy)phenyl)-1,2,4-oxadiazole] | 100 to 1000 nM
Cc1cc(Cn2nc(-c3nc(-c4ccc(OC(F)(F)F)cc4)no3)nc2C)n(C)n1 [Example 48, 5-(1-((1,3-Dimethyl-1H-pyrazol-5-yl)methyl)-5-methyl-1H-1,2,4-triazol-3-yl)-3-(4-(trifluoromethoxy)phenyl)-1,2,4-oxadiazole] | 100 to 1000 nM
Cc1nc(-c2nc(-c3ccc(OC(F)(F)F)cc3)no2)nn1Cc1cc(=O)n2ccsc2n1 [Example 49, 7-((5-Methyl-3-(3-(4-(trifluoromethoxy)phenyl)-1,2,4-oxadiazol-5-yl)-1H-1,2,4-triazol-1-yl)methyl)-5H-thiazolo[3,2-a]pyrimidin-5-one] | 100 to 1000 nM
Cc1nc(-c2nc(-c3ccc(OC(F)(F)F)cc3)no2)nn1Cc1cccc(N2CCCC2)c1 [Example 50, 5-(5-Methyl-1-(3-(pyrrolidin-1-yl)benzyl)-1H-1,2,4-triazol-3-yl)-3-(4-(trifluoromethoxy)phenyl)-1,2,4-oxadiazole] | 100 to 1000 nM
Cc1nc(-c2nc(-c3ccc(OC(F)(F)F)cc3)no2)nn1Cc1cccc(N2CCC(C#N)CC2)c1 [Example 51, 1-(3-((5-Methyl-3-(3-(4-(trifluoromethoxy)phenyl)-1,2,4-oxadiazol-5-yl)-1H-1,2,4-triazol-1-yl)methyl)phenyl)piperidine-4-carbonitrile] | < 100 nM
Cc1nc(-c2nc(-c3ccc(OC(F)(F)F)cc3)no2)nn1Cc1cccc(N(C)C)c1 [Example 52, N,N-Dimethyl-3-((5-methyl-3-(3-(4-(trifluoromethoxy)phenyl)-1,2,4-oxadiazol-5-yl)-1H-1,2,4-triazol-1-yl)methyl)aniline] | < 100 nM
